Assay results as given in patent US8883165B2, “Modified peptide vaccine derived from influenza M2” (The Chemo-Sero-Therapeutic Research Institute, priority 2009, dated 2014).
“And” between values parts separate entries of the source, which are not always exact repeats. Equal values may be shown once. “Also recorded” adds a separate entry of the source.

Experiments:
[1] = system: M2e; design: species or system BALB/c mice; conditions: mouse, in vivo, sc
[2] = system: M2e; design: species or system BALB/c mice; conditions: mouse, in vivo
[3] = system: M2e; design: species or system BALB/c mice; conditions: mouse, in vivo; remark: listed apart in the source
[4] = system: Influenza virus (A/PR8/8/34 strain, H1N1); format: in vivo, BALB/c mice; conditions: mouse, in vivo

Sequence	anti-M2e antibody titer, comparison in words [1]	further results
SLLTEVETPIRNECWCGCRCNCDSSD [M2eC151621]	antibody titer comparable to M2e	
SLLTEVETPIRNEWCGCRCNCDCSCSCD [M2eC1621222324]	higher than that of M2eC162122	
SLLTEVETPIRNEWCGCRCNCDCSCSD [M2eC16212223]	higher than that of M2eC162122	
SLLTEVETPIRNEWCGCRCNCDCSSD [M2eC162122]	higher antibody titer than that of M2e	
SLLTEVETPIRNEWCGCRCNCDSSD [M2eC1621]	increased anti-M2e antibody titer than M2eC21	
SLLTEVETPIRNEWGCRCNCCCDSSD [M2eC212121]	induced a high anti-M2e antibody titer	
SLLTEVETPIRNEWGCRCNCDCSCSCD [M2eC21222324]	higher than that of M2eC212223	
SLLTEVETPIRNEWGCRCNCDCSCSD [M2eC212223]	higher antibody titer than that of M2e	anti-M2e antibody titer just before challenge [2]: could induce a high anti-M2e antibody titer
SLLTEVETPIRNEWGCRCNCDCSSD [M2eC2122]	increased anti-M2e antibody titer than M2eC21	
SLLTEVETPIRNEWGCRCNCDSCSD [M2eC2123]	increased anti-M2e antibody titer than M2eC21	
SLLTEVETPTRSEWECRCSCDCSCSD [swM2eC212223]		anti-M2e antibody titer immediately before challenge [3]: the highest; also recorded: high anti-M2e antibody titer; Survival rate [4]: 9/9 and 7/8
